Measured values reported in patent publication US8674095B2, “Compounds for treating neuropsychiatric conditions” (Afraxis Holdings, Inc., priority 2008, dated 2014).

Tests used:
[1] = target: PAK3 (Homo sapiens, UniProt O75914); test: Z'Lyte fluorescence-based (FRET) kinase assay, PAK3; type: biochemical; settings: 100 μM ATP (Km apparent), 1 hr room temperature, 1% DMSO
Description: (§1) A fluorescence-based assay format is used to determine IC50 values of test compounds in vitro. Purified PAK kinase is incubated with ATP, and a test compound at various concentrations and a substrate peptide containing two fluorophores. In a second step, the reaction mix is incubated with a site-specific protease that cleaves non-phosphorylated but not phosphorylated substrate peptide, disrupting the FRET signal generated by the two fluorophores in the cleaved peptide (Z′Lyte™ Kinase assay platform; Life Technologies).
(§2) Reagents: 50 mM HEPES, pH 7.5; 0.01% BRIJ-35; 10 mM MgCl2; 1 mM EGTA, 2 uM substrate peptide Ser/Thr20 (proprietary Life Technologies Sequence), PAK enzyme [2.42-30.8 ng for PAK1, 0.29-6 ng for PAK2, 1.5-20 ng for PAK3 and 0.1-0.86 ng for PAK4; actual enzyme amounts depend on lot activity of the enzyme preparation]
(§3) Test compounds are dissolved in DMSO at various concentrations; the final DMSO concentration in the assay reaction is 1%.
(§4) ATP concentration at Km apparent is used in the assay [50 μM ATP for PAK1 assay, 75 μM ATP for PAK2 assay, 100 μM ATP for PAK3 assay, 5 μM ATP for PAK-4 assay] in a total assay volume of […] Assay reactions are incubated at room temperature for 1 hr. Following the kinase reaction, 5 μl of 1:256 dilution of development solution A (Life Technologies) is added and the reaction mix is incubated for an additional 1 hr at room temperature.
(§5) Plates are analyzed in a standard fluorescence plate reader (Tecan or equivalent) using an excitation wavelength of 400 nm and emission wavelengths of 445 nm and 520 nm. Inhibition of kinase reaction is determined by emission ratio=emission@445 nm/emission@520 nm

[2] = test system: PAK1, PAK2, PAK3, PAK-4; test: PAK isoform inhibition profile of example compounds; type: biochemical; settings: classification of example compounds in the description; underlying IC50 data in Table 8
From the text: In some embodiments, the PAK inhibitor is a Group I PAK inhibitor that inhibits, for example, one or more Group I PAK polypeptides, for example, PAK1, PAK2, and/or PAK3. […] In some embodiments, the PAK inhibitor is a PAK2 inhibitor. In some embodiments, the PAK inhibitor is a PAK3 inhibitor. In some embodiments, the PAK inhibitor is a mixed PAK1/PAK3 inhibitor. […] In some embodiments, the PAK inhibitor is a Group II PAK inhibitor that inhibits one or more Group II PAK polypeptides, for example PAK-4, PAK5, and/or PAK6. In some embodiments, the PAK inhibitor is a PAK4 inhibitor. In some embodiments, the PAK inhibitor is a PAK5 inhibitor. In some embodiments, the PAK inhibitor is a PAK6 inhibitor.
as §1, §2, §3, §4, §5

[3] = target: PAK4 (Homo sapiens, UniProt O96013); test: Z'Lyte fluorescence-based (FRET) kinase assay, PAK4; type: biochemical; settings: 5 μM ATP (Km apparent), 1 hr room temperature, 1% DMSO
Description: as §1, §2, §3, §4, §5

[4] = target: PAK2 (Homo sapiens, UniProt Q13177); test: Z'Lyte fluorescence-based (FRET) kinase assay, PAK2; type: biochemical; settings: 75 μM ATP (Km apparent), 1 hr room temperature, 1% DMSO
Description: as §1, §2, §3, §4, §5

[5] = test system: Wistar rat pups injected with tetanus toxin; settings: in vivo
[6] = target: PAK1 (Homo sapiens, UniProt Q13153); test: Z'Lyte fluorescence-based (FRET) kinase assay, PAK1; type: biochemical; settings: 50 μM ATP (Km apparent), 1 hr room temperature, 1% DMSO
Description: as §1, §2, §3, §4, §5

Chain of PAK1 (Q13153 whole entry): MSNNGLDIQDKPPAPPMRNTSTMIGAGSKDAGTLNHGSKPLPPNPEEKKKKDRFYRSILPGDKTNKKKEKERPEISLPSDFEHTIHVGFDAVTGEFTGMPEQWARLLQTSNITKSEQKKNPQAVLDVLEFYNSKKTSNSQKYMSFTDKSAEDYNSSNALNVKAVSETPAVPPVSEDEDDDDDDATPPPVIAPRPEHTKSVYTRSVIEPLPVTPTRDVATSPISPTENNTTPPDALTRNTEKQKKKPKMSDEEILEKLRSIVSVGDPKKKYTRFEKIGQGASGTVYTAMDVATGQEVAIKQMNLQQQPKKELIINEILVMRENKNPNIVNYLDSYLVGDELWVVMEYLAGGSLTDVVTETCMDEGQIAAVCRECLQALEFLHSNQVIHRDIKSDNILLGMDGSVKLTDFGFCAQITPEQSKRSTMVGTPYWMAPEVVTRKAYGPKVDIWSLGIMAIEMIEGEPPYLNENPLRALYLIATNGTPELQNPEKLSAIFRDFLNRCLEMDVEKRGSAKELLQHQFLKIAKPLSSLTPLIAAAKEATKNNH
Chain of PAK2 (Q13177 whole entry): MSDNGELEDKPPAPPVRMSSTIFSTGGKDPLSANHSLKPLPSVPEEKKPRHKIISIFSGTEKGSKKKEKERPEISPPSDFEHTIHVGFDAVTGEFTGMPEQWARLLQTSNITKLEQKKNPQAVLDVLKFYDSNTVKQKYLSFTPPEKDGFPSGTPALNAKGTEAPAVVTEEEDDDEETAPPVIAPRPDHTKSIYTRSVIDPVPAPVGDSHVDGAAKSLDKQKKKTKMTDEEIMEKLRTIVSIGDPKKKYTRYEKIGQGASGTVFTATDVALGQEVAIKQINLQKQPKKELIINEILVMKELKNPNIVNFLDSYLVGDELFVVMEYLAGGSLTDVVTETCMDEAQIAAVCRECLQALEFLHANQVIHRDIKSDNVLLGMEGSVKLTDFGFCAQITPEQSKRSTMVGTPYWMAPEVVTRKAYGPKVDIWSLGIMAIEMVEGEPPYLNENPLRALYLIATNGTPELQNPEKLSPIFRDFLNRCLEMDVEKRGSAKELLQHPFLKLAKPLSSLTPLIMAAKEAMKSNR
Chain of PAK3 (O75914 whole entry): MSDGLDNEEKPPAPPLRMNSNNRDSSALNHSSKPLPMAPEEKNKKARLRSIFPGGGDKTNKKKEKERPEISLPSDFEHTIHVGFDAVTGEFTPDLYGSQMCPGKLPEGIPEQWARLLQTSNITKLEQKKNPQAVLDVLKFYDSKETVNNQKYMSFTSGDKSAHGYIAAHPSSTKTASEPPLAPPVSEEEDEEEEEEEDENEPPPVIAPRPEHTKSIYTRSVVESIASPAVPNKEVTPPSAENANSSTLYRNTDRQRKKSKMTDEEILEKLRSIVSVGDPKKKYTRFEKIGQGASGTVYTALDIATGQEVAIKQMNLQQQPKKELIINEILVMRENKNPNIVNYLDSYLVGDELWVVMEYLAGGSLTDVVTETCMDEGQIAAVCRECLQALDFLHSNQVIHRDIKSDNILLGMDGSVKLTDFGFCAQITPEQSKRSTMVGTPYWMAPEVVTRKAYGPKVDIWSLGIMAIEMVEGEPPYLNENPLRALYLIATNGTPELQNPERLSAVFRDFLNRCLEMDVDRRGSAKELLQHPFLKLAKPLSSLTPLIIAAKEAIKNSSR
Chain of PAK4 (O96013 whole entry): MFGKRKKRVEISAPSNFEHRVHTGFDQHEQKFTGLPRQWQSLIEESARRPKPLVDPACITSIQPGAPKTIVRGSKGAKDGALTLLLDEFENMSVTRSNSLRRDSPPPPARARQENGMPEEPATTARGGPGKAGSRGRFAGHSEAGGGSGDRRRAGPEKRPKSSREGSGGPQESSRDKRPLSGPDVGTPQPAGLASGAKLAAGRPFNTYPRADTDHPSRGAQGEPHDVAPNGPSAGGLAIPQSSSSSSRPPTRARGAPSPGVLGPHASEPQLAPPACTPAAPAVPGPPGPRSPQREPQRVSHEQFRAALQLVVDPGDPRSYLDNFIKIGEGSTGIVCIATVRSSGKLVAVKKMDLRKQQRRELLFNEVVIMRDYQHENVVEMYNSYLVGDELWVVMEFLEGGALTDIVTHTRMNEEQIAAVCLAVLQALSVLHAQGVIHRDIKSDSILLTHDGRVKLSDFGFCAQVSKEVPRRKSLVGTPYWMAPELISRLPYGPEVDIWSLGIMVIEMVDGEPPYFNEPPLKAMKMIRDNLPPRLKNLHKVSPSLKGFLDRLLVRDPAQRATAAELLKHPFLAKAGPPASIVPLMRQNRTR

SMILES | IC50 [1] [nM] | PAK inhibitor type (isoform profile) [2] | IC50 [3] [nM] | IC50 [4] [nM] | Effect on seizures [5] | IC50 [6] [nM]
CN1CCN(c2ccc(Nc3ncc4ccc(=O)n([C@H]5CCCc6ccccc65)c4n3)cc2)CC1 [Compound 12] | 1000 to 10000 | PAK1 inhibitor | 1000 to 10000 | 1000 to 10000 | reduce the frequency and severity of seizures | < 1000
CN1CCN(c2ccc(Nc3ncc4ccc(=O)n(Cc5c(Cl)cccc5C5CC5)c4n3)cc2)CC1 [Compound 84] | < 1000 | inhibits all three Group I PAK isoforms (PAK1, 2 and PAK3) with equal or similar potency | 1000 to 10000 | < 1000 | – | < 1000
CC(C)Oc1ccccc1Cn1c(=O)ccc2cnc(Nc3ccc(N4CCN(C)CC4)cc3)nc21 [Compound 69] | < 1000 | mixed PAK1/PAK2/PAK3/PAK-4 inhibitor | < 1000 | < 1000 | – | < 1000
CN1CCN(c2ccc(Nc3ncc4ccc(=O)n(Cc5ccccc5-c5cccs5)c4n3)cc2)CC1 [Compound 77] | < 1000 | inhibits all three Group I PAK isoforms (PAK1, 2 and PAK3) with equal or similar potency | 1000 to 10000 | < 1000 | – | < 1000
NCCNc1ccc(-c2ccnc(Nc3ccc(N4CCNCC4)cc3)n2)cn1 [Compound 111] | 1000 to 10000 | mixed PAK1/PAK-4 inhibitor | < 1000 | 1000 to 10000 | – | < 1000
CN1CCN(c2ccc(Nc3ncc4ccc(=O)n(Cc5ccccc5S(C)(=O)=O)c4n3)cc2)CC1 [Compound 72] | < 1000 | mixed PAK1/PAK2/PAK3/PAK-4 inhibitor | < 1000 | < 1000 | – | < 1000
Cc1cccc(F)c1Cn1c(=O)ccc2cnc(Nc3ccc(N4CCN(C)CC4)cc3)nc21 [Compound 65] | < 1000 | mixed PAK1/PAK2/PAK3/PAK-4 inhibitor | < 1000 | < 1000 | – | < 1000
COc1cccc(F)c1Cn1c(=O)ccc2cnc(Nc3ccc(N4CCN(C)CC4)cc3)nc21 [Compound 61] | 1000 to 10000 | mixed PAK1/PAK-4 inhibitor | < 1000 | 1000 to 10000 | – | < 1000
CN1CCN(c2ccc(Nc3ncc4ccc(=O)n(Cc5ccccc5S(=O)(=O)N5CCOCC5)c4n3)cc2)CC1 [Compound 74] | < 1000 | mixed PAK1/PAK2/PAK3/PAK-4 inhibitor | < 1000 | < 1000 | – | < 1000
CN1CCN(c2ccc(Nc3ncc4cc(-c5ccccc5)c(=O)n(Cc5ccccc5C(F)(F)F)c4n3)cc2)CC1 [Compound 119] | < 1000 | inhibits all three Group I PAK isoforms (PAK1, 2 and PAK3) with equal or similar potency | > 10000 | < 1000 | – | < 1000
